Reference: patent US20110143948A1, “MOLECULAR SIGNATURES AND BIOMARKERS ASSOCIATED WITH MELANOMA AND METHODS OF USE THEREOF” (priority 2008, published 2011)

System: ncRNAs (SEQ ID NO 28-89)
Experiment: ncRNA arrays of melanocytes, keratinocytes, normal skin, melanoma cell lines and patient samples
Parameters: species or system human
Settings: for ncRNA array expression, patient 2: melanoma patient 2 sample compared to normal skin; for ncRNA array expression, patient 3: melanoma patient 3 sample compared to normal skin; for ncRNA array expression, patient 4: melanoma patient 4 sample compared to normal skin; for ncRNA array expression, patient 5: melanoma patient 5 sample compared to normal skin; for ncRNA array expression, patient 6: melanoma patient 6 sample compared to normal skin; for ncRNA array expression, patient 7: melanoma patient 7 sample compared to normal skin; for ncRNA array expression, patient 8: melanoma patient 8 sample compared to normal skin; for ncRNA array expression, patient 9: melanoma patient 9 sample compared to normal skin; for ncRNA array expression, patient 10: melanoma patient 10 sample compared to normal skin; for ncRNA array expression, patient 19: melanoma patient 19 sample compared to normal skin; for ncRNA array expression, patient 20: melanoma patient 20 sample compared to normal skin; for ncRNA array expression, patient 21: melanoma patient 21 sample compared to normal skin; for ncRNA array expression, patient 22: melanoma patient 22 sample compared to normal skin; for ncRNA array expression, patient 23: melanoma patient 23 sample compared to normal skin; for ncRNA array expression, patient 24: melanoma patient 24 sample compared to normal skin; for ncRNA array expression, patient 25: melanoma patient 25 sample compared to normal skin; for ncRNA array expression, patient 26: melanoma patient 26 sample compared to normal skin; for ncRNA array expression, patient 27: melanoma patient 27 sample compared to normal skin; for ncRNA array expression, patient 28: melanoma patient 28 sample compared to normal skin; for ncRNA array expression, patient 29: melanoma patient 29 sample compared to normal skin; for ncRNA array expression, patient 30: melanoma patient 30 sample compared to normal skin
Protocol: An ncRNA array platform that contains over 10,000 putative (>200 nt) ncRNAs including most of the known ncRNAs in mouse and human was conducted to evaluate ncRNAs within melanoma. Lack of coding potential was estimated by an algorithm that scores various characteristics of protein-coding genes, including open reading frame length, synonymous/non-synonymous base substitution rates and similarity to known proteins. These arrays provide the first generation of tools designed to analyze the dynamic expression of a large subset of ncRNAs in human and mouse and to identify candidate genes for more detailed functional analysis. In addition to the ncRNA content, probes targeting mRNA content from RefSeq are also included, allowing discovery of coordinated expression with associated protein-coding genes. The result of these assays is a list of ncRNA genes (i.e. SEQ ID NO 28-89) and maps of their sequence boundaries. We have profiled total RNA isolated from melanocytes, keratinocytes, normal human skin, melanoma cell lines and melanoma patient samples to identify differentially expressed ncRNAs in cell lines and tissues. ncRNAs expression in all tested samples were compared to either melanocytes or normal skin. We have identified a group of ncRNAs that are specific for (a) melanocytes (b) Keratinocytes (c) Melanoma cell lines (d) Melanoma patients. […] Probe DNA sequences for this array include: AF086032 (SEQ ID NO 107) […] BC071821 (SEQ ID NO 108) […] C AK130193 (SEQ ID NO 109) […] AL109719 (SEQ ID NO 110) […] AF085888 (SEQ ID NO 111) […] T BC033879 (SEQ ID NO 112) […] AA AK024556 (SEQ ID NO 113) […] Probe nomenclature is standard genebank IDs given by NCBI and other organizations.
Keratinocytes specific signatures were subtracted and resultant ncRNAs were validated by qRT-PCR and Northern blots. Results point out the presence of a group of melanoma specific ncRNAs (i.e. SEQ ID NO 28-89).

Substance | ncRNA array expression, patient 2 | ncRNA array expression, patient 3 | ncRNA array expression, patient 4 | ncRNA array expression, patient 5 | ncRNA array expression, patient 6 | ncRNA array expression, patient 7 | ncRNA array expression, patient 8 | ncRNA array expression, patient 9 | ncRNA array expression, patient 10 | ncRNA array expression, patient 19 | ncRNA array expression, patient 20 | ncRNA array expression, patient 21 | ncRNA array expression, patient 22 | ncRNA array expression, patient 23 | ncRNA array expression, patient 24 | ncRNA array expression, patient 25 | ncRNA array expression, patient 26 | ncRNA array expression, patient 27 | ncRNA array expression, patient 28 | ncRNA array expression, patient 29 | also measured
SEQ ID NO 35 (GTTTCCATTGAAGAATATTACGCTCGGGGACAAGCCAGGTGCACGACCAAAAATTTAAAA; DNA, backbone and methylation of C not given here; listed as Homo sapiens) | 1.513 | 3.848 | 3.278 | 2.521 | 2.07 | 3.025 | 2.14 | −0.1931 | 3.606 | 0.9237 | 2.507 | 2.618 | 0.8167 | 2.729 | −2.783 | 1.774 | 3.301 | 3.86 | 4.108 | 3.127 | ncRNA array expression, patient 30: −0.8323
SEQ ID NO 36 (TATTTGTGACTAACTGTATAACAGGTTATTTTAGTTTCTGTTCTGTGGGAAGTGTAAAGC; listed as DNA, chemistry not given here; listed as Homo sapiens) | 3.977 | 3.577 | 4.181 | 4.05 | 3.52 | 4.601 | 4.36 | 3.565 | 2.818 | 3.798 | 4.669 | 3.909 | 3.164 | 2.96 | 3.815 | 5.084 | 4.401 | 4.909 | 4.878 | 4.381 | ncRNA array expression, patient 30: −1.698
SEQ ID NO 37 (ACGCACTGGGCGTTGAAGCAGTGCTTTCTGGATTAAATACGAAATACTGATGTCACAAGC; DNA, backbone and methylation of C not given here; listed as Homo sapiens) | 1.589 | 0.3993 | 0.7773 | 2.425 | −0.3494 | 1.933 | 1.302 | 2.619 | 3.899 | 4.51 | 0.9938 | 2.575 | 0.0988 | 1.771 | 4.312 | 3.471 | 2.31 | 0.5554 | 1.732 | 2.461 | ncRNA array expression, patient 30: −1.17
SEQ ID NO 38 (GTAAACAAGGTCTCACAAAAACAGCTGACCACACCATAAAATCACTGAGACCGAGCCTGC; listed as DNA, chemistry not given here; listed as Homo sapiens) | −1.1813 | −1.02 | −0.9275 | −1.288 | −1.615 | −1.64 | −1.244 | −1.183 | −0.784 | −0.7729 | −0.9285 | −1.068 | −0.7593 | −1.569 | −1.078 | −1.365 | −1.368 | −1.317 | −1.181 | −1.249 | ncRNA array expression, patient 30: 0.333
SEQ ID NO 39 (TGATCCTGTAAATCATGTTTTTGTTTATTCCCCAACACTAACCTCACTCCTTTACTATTC; listed as DNA, chemistry not given here; listed as Homo sapiens) | −1.04 | −0.7852 | −1.149 | −1.017 | −0.9404 | −1.086 | −0.9282 | −1.306 | −1.237 | −0.6006 | −1.263 | −1.232 | −0.301 | −0.164 | −1.204 | −1.66 | −1.776 | −1.287 | −1.448 | −1.374 | ncRNA array expression, patient 30: 0.02356
SEQ ID NO 40 (GTTAAAGACTAAATTAGTGATTTGGGAGATCAAGCCAATGGGCTTGTCTAAAACCTAGTC; listed as DNA, chemistry not given here; listed as Homo sapiens) | 1.341 | 1.98 | 2.261 | 0.52 | 1.498 | 0.4373 | 1.771 | 0.4625 | 0.3577 | 0.3342 | 0.9994 | 0.489 | 0.9011 | 1.125 | 0.452 | 2.17 | 2.021 | 1.467 | 1.364 | 1.245 | ncRNA array expression, patient 30: 0.7348
SEQ ID NO 41 (CTCGTAACACTGGGAAAACTGCATACAATATTTAGAAGGAACACTAATACAGCAGAATCT; listed as DNA, chemistry not given here; listed as Homo sapiens) | −2.529 | −2.702 | −2.655 | −2.566 | −2.676 | −2.596 | −2.699 | −2.456 | −2.262 | −0.5732 | −2.545 | −2.574 | −2.212 | −1.1449 | −2.6637 | −2.4383 | −2.458 | −2.204 | −2.5405 | −2.614 | ncRNA array expression, patient 30: 0.7101
